The source of these data is patent publication US4791059A, “Process for preparing lipase” (Suntory Limited, priority 1984, dated 1988).

The test has as its system lipase. Nature of the test: Inhibition and activation of lipase activity by divalent metal ions, SH reagent and surface-active agents. Format: biochemical, Staphylococcus capitis. How it is done:
The effects of the divalent metal ions, SH reagent and surface-active agents on the lipase activity were evaluated by measuring the residual activities after treatment. […] The lipase activity is increased 3-fold to 5-fold by the presence of Ca^2+.
The lipase activity is more than 90% inhibited by 2 mM sodium laurylsulfate (SDS), 2 mM iodine acetamide, 0.1% Tween 20, 0.1% Tween 80, and 0.1% Triton X-100.
One milliliter of olive oil is added to a test tube (.phi.25×200 mm) containing 5 ml of a reaction mixture consisting of 25 mM of a Tris-HCl buffer (pH 8.0) and 10 mM of CaCl2, the tube is stirred vigorously with a mixer, and 0.5 ml of an enzyme solution is added to the tube. The reaction is carried out during which the tube is shaken at 300 rpm on a reciprocating shaker. The reaction is stopped on the addition of 20 ml of ethanol and the fatty acids formed are titrated with 0.05 N of an aqueous sodium hydroxide solution. The control values are likewise determined by titrating the solution obtained by first adding ethanol to a reaction mixture of the composition and then adding an enzyme solution to the same. According to a proposal by Enzyme Nomenclature; recommendations (1978) of the nomenclature committee of the International Union of Biochemistry (I.U.B.), Academic Press, a unit of lipase activity is defined as that amount of lipase required to liberate 1 μmole of fatty acids per minute under reaction conditions.

For `[Ca+2]` [Ca^2+], the “inhibition of lipase activity (residual activity after treatment)” value (10 mM) is on record as “No inhibition”.

As to `[Cu+2]` [Cu^2+], the “inhibition of lipase activity (residual activity after treatment)” value (10 mM) is on record as “No inhibition”.

For the compound `[Fe+2]` [Fe^2+], for the setting “1 mM”, the “inhibition of lipase activity (residual activity after treatment)” value is reported as “No inhibition”.

In the case of `[Mg+2]` [Mg^2+], the “inhibition of lipase activity (residual activity after treatment)” value (10 mM) is “No inhibition”.

Turning to `[Mn+2]` [Mn^2+], the “inhibition of lipase activity (residual activity after treatment)” value (10 mM) is recorded as “No inhibition”.

For `CCCCCCCC/C=C\CCCCCCCC(=O)OCCOCC(OCCO)C1OCC(OCCO)C1OCCO` (stereo not shown) [Tween 80], the “inhibition of lipase activity” value (0.1%) was “more than 90%”.

For `[Zn+2]` [Zn^2+], the “inhibition of lipase activity (residual activity after treatment)” value (10 mM) is on record as “No inhibition”.

On to `NC(=O)CI` [iodine acetamide], for which the “inhibition of lipase activity” value (2 mM) was “more than 90%”.

Turning to `CCCCCCCCCCCCOS(=O)(=O)[O-].[Na+]` [sodium laurylsulfate (SDS), sodium laurylsulfate], for the setting “2 mM”, the “inhibition of lipase activity” value is “more than 90%”.

Regarding Triton X-100, the “inhibition of lipase activity” value (0.1%) is “more than 90%”.
